Values of other authors as cited in US20110130710A1, “TREATMENT OF ABNORMAL OR EXCESSIVE SCARS” (priority 2007, published 2011).

Assays:
[1] = applied topically
epithelial tissue = conditions: about 50 μl, topical application

Q: With platelet derived growth factor [PDGF] as the molecule, how does the “effective dose of PDGF” value [1] read?
A: The value was ≥ 5 ng/mm^2.

B1: keratinocyte growth factor (protein, UniProt P21781 32-194, looked up)
Fibroblast growth factor 7: CNDMTPEQMATNVNCSSPERHTRSYDYMEGGDIRVRRLFCRTQWYLRIDKRGKVKGTQEMKNNYNIMEIRTVAVGIVAIKGVESEFYLAMNKEGKLYAKKECNEDCNFKELILENHYNTYASAKWTHNGGEMFVALNQKGIPVRGKKTKKEQKTAHFLPMAIT
notes: growth factor useful for wound healing
Q: For B1, which “concentration of KGF that may be effective for wound healing” value (epithelial tissue) is on record?
A: Its value is “about 5 μg/ml”.
